Kd and Ki data for 12 compounds are collected here from US20240391959A1, “BICYCLIC PEPTIDE LIGANDS […] FOR TRANSFERRIN RECEPTOR 1 (TfR1)” (BicycleTx Limited, priority 2020, published 2024).

Molecules are shown by their SMILES. Several values for one entry are separate records, joined by “and”; a condition that tells them apart may be missing. Identical values can stand only once.

The target of test [1] is cynomolgus TfR1. It counts as binding.
In test [2] the target is human TfR1 (Homo sapiens, UniProt P02786). Kind of test: biochemical. It counts as binding. Further details: His6-tagged TfR1 (a.a. 89-760) (ACRO Biosystems, CD1-H5243 and TFR-C524a); His6; purchased R&D Systems or Acro Biosystems 2474-TR or CD1-H5243.
Chain of human TfR1 (P02786 89-760): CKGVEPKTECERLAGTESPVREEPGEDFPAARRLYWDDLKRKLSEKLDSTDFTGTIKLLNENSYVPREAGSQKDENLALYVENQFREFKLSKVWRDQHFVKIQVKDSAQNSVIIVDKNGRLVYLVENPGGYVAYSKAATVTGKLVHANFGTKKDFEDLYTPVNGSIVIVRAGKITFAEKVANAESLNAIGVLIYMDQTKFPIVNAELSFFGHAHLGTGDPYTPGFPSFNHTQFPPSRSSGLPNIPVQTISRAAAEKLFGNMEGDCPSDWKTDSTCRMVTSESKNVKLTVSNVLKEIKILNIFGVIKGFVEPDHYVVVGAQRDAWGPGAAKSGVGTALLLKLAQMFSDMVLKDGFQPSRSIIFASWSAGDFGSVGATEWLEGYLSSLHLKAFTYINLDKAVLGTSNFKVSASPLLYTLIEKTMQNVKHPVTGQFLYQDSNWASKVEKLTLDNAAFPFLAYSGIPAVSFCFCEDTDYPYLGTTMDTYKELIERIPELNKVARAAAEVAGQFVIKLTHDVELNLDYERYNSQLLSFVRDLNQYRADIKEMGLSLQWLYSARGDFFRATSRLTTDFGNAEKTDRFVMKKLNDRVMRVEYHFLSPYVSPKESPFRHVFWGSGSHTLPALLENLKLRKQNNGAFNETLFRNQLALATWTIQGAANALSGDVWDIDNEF

`CC[C@H](C)[C@@H]1NC(=O)[C@@H]2CSCC(=O)N3CN(CN(C3)C(=O)CSC[C@H](NC(C)=O)C(=O)N[C@@H](C)C(=O)N3CCC[C@H]3C(=O)N[C@@H](CC(=O)O)C(=O)N[C@@H](C)C(=O)N[C@@H](Cc3c[nH]cn3)C(=O)N[C@@H](CC(C)C)C(=O)NCC(=O)N2)C(=O)CSC[C@@H](C(N)=O)NC(=O)[C@H](Cc2ccc(O)cc2)NC(=O)[C@H](CO)NC1=O` [BCY17986, Ac-(SEQ ID NO: 24)]: binding in test [1] was characterised by a dissociation constant (Kd) of 4660 nM. Still for that read-out and setting: next, `CC(C)C[C@@H]1NC(=O)[C@H](Cc2ccc(O)cc2)NC(=O)[C@H](C)NC(=O)[C@H](CC(=O)O)NC(=O)[C@@H]2CCCN2C(=O)[C@@H]2CCCN2C(=O)[C@@H](NC(=O)[C@H](C)N)CSCC(=O)N2CN3CN(C2)C(=O)CSC[C@@H](C(=O)N[C@@H](C)C(N)=O)NC(=O)[C@H](Cc2ccc(O)cc2)NC(=O)[C@H](CO)NC(=O)[C@H](C(C)(C)C)NC(=O)[C@H](CSCC3=O)NC(=O)CNC1=O` [BCY16964, A-(SEQ ID NO: 22)-A]: 514 nM; `CC[C@H](C)[C@@H]1NC(=O)[C@@H]2CSCC(=O)N3CN(CN(C3)C(=O)CSC[C@@H](C(=O)N[C@@H](CCC(=O)O)C(=O)N3CCC[C@H]3C(=O)N[C@@H](Cc3c[nH]c4ccccc34)C(N)=O)NC(=O)[C@H](Cc3ccc(O)cc3)NC(=O)[C@H](CO)NC1=O)C(=O)CSC[C@H](NC(=O)[C@H](C)N)C(=O)N[C@@H](CO)C(=O)N1CCC[C@H]1C(=O)N[C@@H](CC(=O)O)C(=O)N[C@@H](C)C(=O)N[C@@H](Cc1c[nH]cn1)C(=O)N[C@@H](CC(C)C)C(=O)NCC(=O)N2` [BCY17114, A-(SEQ ID NO: 9)-EPW]: 845 nM. Consider `CC[C@H](C)[C@@H]1NC(=O)[C@@H]2CSCC(=O)N3CN(CN(C3)C(=O)CSC[C@@H](C(=O)N[C@@H](C)C(N)=O)NC(=O)[C@H](Cc3cccc4ccccc34)NC(=O)[C@H](CO)NC1=O)C(=O)CSC[C@H](NC(=O)[C@H](C)N)C(=O)N[C@@H](CO)C(=O)N1CCC[C@H]1C(=O)N[C@@H](CC(=O)O)C(=O)N[C@@H](C)C(=O)N[C@@H](Cc1c[nH]cn1)C(=O)N[C@@H](CC(C)C)C(=O)NCC(=O)N2` [BCY16029, A-(SEQ ID NO: 39)-A], for which, in test [1], the Kd (commonly the concentration at which binding is half-saturated) was 5480 nM. Same read-out and setting: the result for `CC[C@H](C)[C@@H]1NC(=O)[C@@H]2CSCC(=O)N3CN(CN(C3)C(=O)CSC[C@H](NC(=O)[C@@H](NC(=O)[C@H](CCC(=O)O)NC(=O)[C@@H](N)CC(N)=O)C(C)C)C(=O)N[C@@H](CO)C(=O)N3CCC[C@H]3C(=O)N[C@@H](CC(=O)O)C(=O)N[C@@H](C)C(=O)N[C@@H](Cc3c[nH]cn3)C(=O)N[C@@H](CC(C)C)C(=O)NCC(=O)N2)C(=O)CSC[C@@H](C(=O)N[C@@H](C)C(N)=O)NC(=O)[C@H](Cc2ccc(O)cc2)NC(=O)[C@H](CO)NC1=O` [BCY17112, NEV-(SEQ ID NO: 9)-A] reads 2600 nM; that for `CC[C@H](C)[C@@H]1NC(=O)[C@@H]2CSCC(=O)N3CN(CN(C3)C(=O)CSC[C@@H](C(=O)N[C@@H](CCC(=O)O)C(=O)N3CC[C@H]3C(=O)N[C@@H](Cc3c[nH]c4ccccc34)C(N)=O)NC(=O)[C@H](Cc3ccc(O)cc3)NC(=O)[C@H](CO)NC1=O)C(=O)CSC[C@H](NC(C)=O)C(=O)N[C@@H](CO)C(=O)N1CCC[C@H]1C(=O)N[C@@H](CC(=O)O)C(=O)N[C@@H](C)C(=O)N[C@@H](Cc1c[nH]cn1)C(=O)N[C@@H](CC(C)C)C(=O)NCC(=O)N2` [BCY18037, Ac-(SEQ ID NO: 9)-E[Aze]W], 1080 nM. On the same count and under the same terms, the result for `CC[C@H](C)[C@@H]1NC(=O)[C@@H]2CSCC(=O)N3CN(CN(C3)C(=O)CSC[C@@H](C(=O)N3CCC[C@H]3C(=O)N[C@H](C(=O)N[C@H](C(=O)N[C@@H](Cc3c[nH]cn3)C(N)=O)C(C)C)[C@@H](C)CC)NC(=O)[C@H](Cc3ccc(O)cc3)NC(=O)[C@H](CO)NC1=O)C(=O)CSC[C@H](NC(=O)[C@H](C)N)C(=O)N[C@@H](CO)C(=O)N1CCC[C@H]1C(=O)N[C@@H](CC(=O)O)C(=O)N[C@@H](C)C(=O)N[C@@H](Cc1c[nH]cn1)C(=O)N[C@@H](CC(C)C)C(=O)NCC(=O)N2` [BCY17120, A-(SEQ ID NO: 9)-PIVH] reads 1260 nM.

In the case of `CC[C@H](C)[C@@H]1NC(=O)[C@@H]2CSCC(=O)N3CN(CN(C3)C(=O)CSC[C@H](NC(=O)[C@H](CC(N)=O)NC(=O)[C@H](Cc3c[nH]c4ccccc34)NC(=O)[C@H](CC(N)=O)NC(C)=O)C(=O)N[C@@H](CO)C(=O)N3CCC[C@H]3C(=O)N[C@@H](CC(=O)O)C(=O)N[C@@H](C)C(=O)N[C@@H](Cc3c[nH]cn3)C(=O)N[C@@H](CC(C)C)C(=O)NCC(=O)N2)C(=O)CSC[C@@H](C(N)=O)NC(=O)[C@H](Cc2ccc(O)cc2)NC(=O)[C@H](CO)NC1=O` [BCY17992, Ac-NWN-(SEQ ID NO: 9)], binding in test [1] was characterised by a dissociation constant (Kd) of 535 nM. Regarding `CC[C@H](C)[C@@H]1NC(=O)[C@@H]2CSCC(=O)N3CN(CN(C3)C(=O)CSC[C@@H](C(=O)N[C@@H](CCC(=O)O)C(=O)N3CCC[C@H]3C(=O)N[C@@H](Cc3c[nH]c4ccccc34)C(N)=O)NC(=O)[C@H](Cc3ccc(O)cc3)NC(=O)[C@H](CO)NC1=O)C(=O)CSC[C@H](NC(C)=O)C(=O)N[C@@H](CO)C(=O)N1CCC[C@H]1C(=O)N[C@@H](CC(=O)O)C(=O)N[C@@H](C)C(=O)N[C@@H](Cc1c[nH]cn1)C(=O)N[C@@H](CC(C)C)C(=O)NCC(=O)N2` [BCY17994, Ac-(SEQ ID NO: 9)-EPW], in test [1], the Kd amounted to 688 nM. Moreover, the Ki in test [2] (Geomean Ki (μM)) and in test [2] (Human TfR1 Ki (nM)) was 0.008 µM each time. On to `CC[C@H](C)[C@@H]1NC(=O)[C@@H]2CSCC(=O)N3CN(CN(C3)C(=O)CSC[C@H](NC(=O)[C@H](CC(N)=O)NC(=O)[C@H](Cc3c[nH]c4ccccc34)NC(=O)[C@@H](N)CC(N)=O)C(=O)N[C@@H](CO)C(=O)N3CCC[C@H]3C(=O)N[C@@H](CC(=O)O)C(=O)N[C@@H](C)C(=O)N[C@@H](Cc3c[nH]cn3)C(=O)N[C@@H](CC(C)C)C(=O)NCC(=O)N2)C(=O)CSC[C@@H](C(=O)N[C@@H](C)C(N)=O)NC(=O)[C@H](Cc2ccc(O)cc2)NC(=O)[C@H](CO)NC1=O` [BCY17109, NWN-(SEQ ID NO: 9)-A], for which the Kd in test [1] is 281 nM and 535 nM. In addition, the Ki (as a rule, a dissociation constant, usually derived from enzyme kinetics or from competition with a known ligand) in test [2] (Geomean Ki (μM)) worked out at 0.009 µM.

On to `CC[C@H](C)[C@@H]1NC(=O)[C@@H]2CSCC(=O)N3CN(CN(C3)C(=O)CSC[C@H](NC(=O)[C@H](CC(N)=O)NC(=O)[C@H](Cc3cccc4ccccc34)NC(=O)[C@H](CC(N)=O)NC(C)=O)C(=O)N[C@@H](CO)C(=O)N3CCC[C@H]3C(=O)N[C@@H](CC(=O)O)C(=O)N[C@@H](C)C(=O)N[C@@H](Cc3c[nH]cn3)C(=O)N[C@@H](CC(C)C)C(=O)NCC(=O)N2)C(=O)CSC[C@@H](C(N)=O)NC(=O)[C@H](Cc2ccc(O)cc2)NC(=O)[C@H](CO)NC1=O` [BCY18034, Ac-N[1Nal]N-(SEQ ID NO: 9)], for which the Kd in test [1] came to 2080 nM. The same compound yielded a Ki in test [2] (Human TfR1 Ki (nM)) of 0.01 µM.

As to `CC[C@H](C)[C@@H]1NC(=O)[C@@H]2CSCC(=O)N3CN(CN(C3)C(=O)CSC[C@@H](C(=O)N[C@@H](CCC(=O)O)C(=O)N3CCC[C@@H]3C(=O)N[C@@H](Cc3c[nH]c4ccccc34)C(N)=O)NC(=O)[C@H](Cc3ccc(O)cc3)NC(=O)[C@H](CO)NC1=O)C(=O)CSC[C@H](NC(C)=O)C(=O)N[C@@H](CO)C(=O)N1CCC[C@H]1C(=O)N[C@@H](CC(=O)O)C(=O)N[C@@H](C)C(=O)N[C@@H](Cc1c[nH]cn1)C(=O)N[C@@H](CC(C)C)C(=O)NCC(=O)N2` [BCY18038, Ac-(SEQ ID NO: 9)-E[dP]W], binding in test [1] was put at a Kd of 1650 nM.
